This note sets out measurements from patent US20130195926A1, “MODULATION OF NITRIC OXIDE SIGNALING TO NORMALIZE TUMOR VASCULATURE” (The General Hospital Corporation, priority 2007, published 2013).

The subject of one data set is nNOS. Nature of the data set: Western blot of nNOS knockdown in U87 tumors grown in cranial windows. Format: in vivo. As to conditions: U87 tumors in cranial windows in Rag-1-/- mice. The procedure:
The stably transfected cells were selected with 80 μg/ml of hygromycin B. The expression of nNOS protein in U87 tumor cells and tissues was determined by'Western blot analysis. Cultured U87MG cells washed with PBS and U87MG tumors homogenized by a tissue grinder were solubilized in 40 mM Tris-HCl, pH 6.8, 2% SDS, 10% glycerol, 1% β-mercaptoethanol, 0.01% bromophenol blue with one Complete Mini Protease Inhibitor Cocktail tablet (Roche Diagnostics) per 50 ml buffer.
(§1) Equal amounts of 60 micrograms of protein per sample were separated on 7.5% SDS polyacrylamide gels, transferred onto polyvinylidene fluoride membrane (Millipore), incubated with primary antibodies followed by secondary antibodies (the same antibodies used in immunohistochemistry studies. See Immunohistochemistry methods below), and detected using enhanced chemiluminescence (GE Healthcare) by exposure on autoradiography films (Kodak) (Xu, L., et al. 2005 Cancer Res. 65, 5711-5719; Canneliet, P., et al. 1998 Nature 394, 485-490; Xu, L., et al. 2002 Journal of Biological Chemistry 277, 11368-11374 (2002); and Xu, L., et al. 2004 Clinical Cancer Research 10, 701-707).
Recombination activating gene 1 (Rag-1^−/−) mice backcrossed to C57BL/6 background or severe combined immunodeficiency (SCID) mice, bred and maintained in an gnotobiotic animal facility, were used. To obtain source tumor tissue, U87 tumor cells in culture (1×10^6 cells) were injected subcutaneously into Rag-1^−/− or SCID mice matching the recipient mice. When the tumor reached about 8 mm in diameter, it was excised after euthanasia and a small piece (about 1 mm^3) of viable tumor tissue was implanted into a cranial window or subcutaneously into the calf area of the right hindlegs of the mice as previously described (Kashiwagi, S., et al. 2005 J. Clin. Invest. 115, 1816-1827; Kozin, S. V., et al. 2001 Cancer Research 61, 39-44). […]
U87 with nNOS shRNA (shRNA58, shRNA97, and shRNA150) were grown in cranial windows in Rag-1^−/− mice. Expression of nNOS in these tumors was determined by Western blot analysis. […]
A general note: Immunoblotting shows a protein as a band on a membrane.

Another data set deals with HIF-1α. Nature of the data set: Western blot of HIF-1α expression in U87 tumors. Format: in vivo. As to conditions: for HIF-1α protein levels, % of that in U87MG tumors: Western blot; for hypoxia inducible factor-1α (HIF-1α) protein levels: compared to U87MG tumors. The procedure:
FIGS. 9A-E show the effect of nNOS silencing in U87 gliomas on tumor tissue oxygenation. Tissues shown in (A) were harvested and stained after injection of pimonidazole (60 mg/kg), followed by biotinylated lectin. Confocal laser scanning microscopy images (top row) of Hypoxyprobe™-1 adducts stained hypoxic cells (red), lectin-bound perfused blood vessels (green) and nuclei (blue) in U87MG, U87-shRNA58, and […] are 630 μm across. Binarized images (bottom row) of above confocal images. Bar indicates 100 μm. (B-C) Quantification of vessel segments (B) and vessel perimeter (C). (D) Quantification of hypoxic area. n=7, 3, 4 respectively. *p<0.05, as compared to U87MG tumors. (E) Western blot analysis of HIF-1α expression in U87MG and nNOS-snRNA-transfected U87 tumors. HIF-1α protein levels in U87-shRNA58 and U87-shRNA150 tumors were 46% and 59% of that in U87MG tumors, respectively. FIGS. 10A-C show the effect of nNOS silencing in U87 gliomas on fractionated radiation therapy. (A) Tumor growth normalized to day 0 tumor volume. (B) Tumor growth delay evaluated at the levels of 2, 4, and 6 times Vo. *P<0.05 as compared to U87MG. (C) Kaplan-Meier survival plot. U87 control (n=9), sh58 control (n=7), sh150 control (n=9), U87 radiation (n=8), sh58 radiation (n=6), sh150 radiation (n=10). FIGS. 11A-D show in vitro radiosensitivity and post-radiation tumor vasculature in U87 tumors. (A) Intrinsic tumor cell radiosensitivity was evaluated with the clonogenic assay. Following irradiation, the cells were incubated 9-13 d for colony formation depending on the dose administered. The surviving fractions were corrected for initial and final multiplicities determined 4-6 h after plating and at the time of irradiation. Data are expressed as mean±s.d. (B-D) When U87MG and nNOS-silenced U87 tumors grown in the hindleg in Rag-1^−/− mice reached ˜100 mm^3 they received 8 Gy/d for 3 d. […] (C-D) Quantification of the number of vessel segments (C) and vessel perimeter (D). […]
as §1
The extent of hypoxia was determined in U87MG, U87-shRNA58, and U87-shRNA150 tumors utilizing a redox marker pimonidazole (Hypoxyprobe™-1 Kit, Millipore). […]

Turning to “shRNA58: short-hairpin RNA for nNOS, CAAAGAGATCGACACCATC (sense), GATGGTGTCGATCTCTTTGTT (antisense), in pSilencer 3.1 H-1-hygro, stably transfected into U87MG”, the “Knockdown efficiency of nNOS in vivo” value in the data set on nNOS turned out to be 98%. Also, in the data set on HIF-1α, the “HIF-1α protein levels, % of that in U87MG tumors” value came to 46% and the “hypoxia inducible factor-1α (HIF-1α) protein levels” value is “reduction”.

For the substance “shRNA150: short-hairpin RNA for nNOS, GGTCTATCCAATGTCCACA (sense), TGTGGACATTGGATAGACCTT (antisense), in pSilencer 3.1 H-1-hygro”, the “Knockdown efficiency of nNOS in vivo” value in the data set on nNOS is 96%. In addition, in the data set with HIF-1α, the “HIF-1α protein levels, % of that in U87MG tumors” value is 59% and the “hypoxia inducible factor-1α (HIF-1α) protein levels” value is listed as “reduction”.
